“And” between values parts separate entries of the source, which are not always exact repeats. Equal values may be shown once.
Tested on: serum levels of 58 analytes
Assay: Serum biomarker analysis, quantitative immunoassay multi-analyte profiling (Rules-Based Medicine RodentMAP v2.9), AA#80
Format: in vivo, mouse
Experimental: In AA#80, serum samples were collected on Day 27, Day 34, Day 41 and Day 55 via the submandibular vein. Approximately 200 μL of blood per mouse was collected in Microtainer® serum separator tubes. Serum was removed following centrifugation and stored at <−65° C. until analysis.
Selected serum samples were sent to Rules-Based Medicine (Austin, Tex.) for quantitative immunoassay multi-analyte profiling of serum samples, with the goal of identifying biomarkers that could be used to monitor disease progression and response to B7-H4-Ig treatment. Day 27, Day 34, and Day 41 sera from the three representative mice in the B7-H4-Ig group (tag #3332, 3334, and 3338) and three representative mice in the Synagis® group (tag #3324, 3329, and 3330) were analyzed for levels of 58 analytes using the RodentMAP v2.9 Testing Service.
Data from the Rules-Based Medicine analysis was analyzed using Microsoft Excel and GraphPad Prism software. T-tests were performed to compare the levels of each analyte in the B7-H4-Ig versus Synagis® treated samples. No correction was made for multiple comparisons. Additionally, correlation coefficients were calculated for each analyte versus disease score.

Synagis®: humanized monoclonal IgG antibody against the F protein of Respiratory Syncytial Virus; used as a human IgG1 isotype control [reference compound]
serum samples with undetectable GST-α levels (all samples (Day 27, 34, 41)): 7/9 | serum samples with TNF-α levels above the limit of detection (all samples (Day 27, 34, 41) (FIG. 16)): 5/9 | M-CSF (Macrophage-Colony Stimulating Factor) (serum, Day 34, LDD 0.01795, listed as Human LgG1 Control): 6.46 ng/mL and 6.3 ng/mL and 6.09 ng/mL | MIP-1gamma (Macrophage Inflammatory Protein-1gamma) (serum, Day 34, LDD 0.0736, listed as Human LgG1 Control): 42.2 ng/mL and 41 ng/mL and 40.9 ng/mL | TEMP-1 (Tissue Inhibitor of Metalicproteinase Type-1) (serum, Day 34, LDD 0.18, listed as Human LgG1 Control): 1.7 ng/mL and 1.88 ng/mL and 1.31 ng/mL | IL-5 (Interleukin-5) (serum, Day 34, LDD 0.194, listed as Human LgG1 Control): 0.333 ng/mL and 0.474 ng/mL | MIP-1alpha (Macrophage Inflammatory Protein-1alpha) (serum, Day 34, LDD 0.2255, listed as Human LgG1 Control): 3.13 ng/mL and 2.88 ng/mL and 2.93 ng/mL | MIP-3beta (Macrophage Inflammatory Protein-3beta) (serum, Day 34, LDD 0.465, listed as Human LgG1 Control): 2.63 ng/mL and 2.52 ng/mL and 2.67 ng/mL | Tissue Factor (serum, Day 34, LDD 0.5175, listed as Human LgG1 Control): 10.8 ng/mL and 10 ng/mL and 12.5 ng/mL | MPO (Myeloperoxidase) (serum, Day 34, LDD 0.95, listed as Human LgG1 Control): 253 ng/mL and 254 ng/mL | SGOT (Serum Glutamic-Oxaloacetic Transaminase) (serum, Day 34, LDD 1.86, listed as Human LgG1 Control): 75 µg/mL and 140 µg/mL and 81.9 µg/mL | TPO (Thromboproletin) (serum, Day 34, LDD 2.66, listed as Human LgG1 Control): 36.1 ng/mL and 34.2 ng/mL and 39.8 ng/mL | SAP (Setrum Amtyloid P) (serum, Day 34, LDD 5.4, listed as Human LgG1 Control): 38.4 µg/mL and 48.6 µg/mL and 38.3 µg/mL | MIP-2 (Macrophage Inflammatory Protein-2) (serum, Day 34, LDD 7.174, listed as Human LgG1 Control): 27.2 pg/mL and 32.3 pg/mL and 33.6 pg/mL | MMP-9 (Matrix Metalloproteinase-9) (serum, Day 34, LDD 10, listed as Human LgG1 Control): 207 ng/mL and 259 ng/mL and 283 ng/mL | MCP-1 (Monocyte Chemoattractant Protein-1) (serum, Day 34, LDD 16.924, listed as Human LgG1 Control): 99.8 pg/mL and 78.3 pg/mL and 117 pg/mL | VCAM-1 (Vescular Cell Adhesion Molecule-1) (serum, Day 34, LDD 19, listed as Human LgG1 Control): 2290 ng/mL and 2120 ng/mL and 2450 ng/mL | MDC (Macrophage-Derived Chemokine) (serum, Day 34, LDD 21.85, listed as Human LgG1 Control): 1270 pg/mL and 1320 pg/mL and 1130 pg/mL | Myoglobin (serum, Day 34, LDD 24, listed as Human LgG1 Control): 10 ng/mL and 9.69 ng/mL and 12.7 ng/mL | MCP-3 (Monocyte Chemoattractant Protein-3) (serum, Day 34, LDD 31.36, listed as Human LgG1 Control): 188 pg/mL and 180 pg/mL and 193 pg/mL | VEGF (Vescular Endotheial Cell Growth Factor) (serum, Day 34, LDD 38.2, listed as Human LgG1 Control): 92.6 pg/mL and 128 pg/mL and 114 pg/mL | IP-10 (Inducible Protein-10) (serum, Day 34, LDD 40.28, listed as Human LgG1 Control): 68.1 pg/mL and 52 pg/mL and 84.3 pg/mL | LIF (Leukemia Infabitory Factor) (serum, Day 34, LDD 43.6, listed as Human LgG1 Control): 1620 pg/mL and 1430 pg/mL | MCP-5 (Monocyte Chemoattractant Protein-5) (serum, Day 34, LDD 46.38, listed as Human LgG1 Control): 37.5 pg/mL and 46.2 pg/mL and 41 pg/mL | SCF (Stem Cell Factor) (serum, Day 34, LDD 75.17, listed as Human LgG1 Control): 214 pg/mL and 182 pg/mL | Lymphotactin (serum, Day 34, LDD 85.48, listed as Human LgG1 Control): 219 pg/mL and 151 pg/mL and 205 pg/mL | VWF (Von Willebrand Factor) (serum, Day 34, LDD 98.6, listed as Human LgG1 Control): 107 ng/mL and 92.4 ng/mL and 139 ng/mL | M-CSF (Macrophage-Colony Stimulating Factor) (serum, Day 41, LDD 0.01795, listed as Human LgG1 Control): 6.38 ng/mL and 5.22 ng/mL and 6.37 ng/mL | MIP-1gamma (Macrophage Inflammatory Protein-1gamma) (serum, Day 41, LDD 0.0736, listed as Human LgG1 Control): 45.4 ng/mL and 44.8 ng/mL | TEMP-1 (Tissue Inhibitor of Metalicproteinase Type-1) (serum, Day 41, LDD 0.18, listed as Human LgG1 Control): 3.54 ng/mL and 3.21 ng/mL and 4.33 ng/mL | IL-5 (Interleukin-5) (serum, Day 41, LDD 0.194, listed as Human LgG1 Control): 0.616 ng/mL and 0.368 ng/mL and 0.333 ng/mL | MIP-1alpha (Macrophage Inflammatory Protein-1alpha) (serum, Day 41, LDD 0.2255, listed as Human LgG1 Control): 3.03 ng/mL and 3.13 ng/mL and 3.32 ng/mL | MIP-3beta (Macrophage Inflammatory Protein-3beta) (serum, Day 41, LDD 0.465, listed as Human LgG1 Control): 3.27 ng/mL and 2.73 ng/mL and 2.35 ng/mL | Tissue Factor (serum, Day 41, LDD 0.5175, listed as Human LgG1 Control): 10.8 ng/mL and 9.17 ng/mL and 11.7 ng/mL | MPO (Myeloperoxidase) (serum, Day 41, LDD 0.95, listed as Human LgG1 Control): 259 ng/mL and 263 ng/mL and 240 ng/mL | SGOT (Serum Glutamic-Oxaloacetic Transaminase) (serum, Day 41, LDD 1.86, listed as Human LgG1 Control): 84 µg/mL and 93.9 µg/mL and 78.4 µg/mL | TPO (Thromboproletin) (serum, Day 41, LDD 2.66, listed as Human LgG1 Control): 38 ng/mL and 39.8 ng/mL and 32.4 ng/mL | SAP (Setrum Amtyloid P) (serum, Day 41, LDD 5.4, listed as Human LgG1 Control): 49.2 µg/mL and 46.2 µg/mL and 48.8 µg/mL | MIP-2 (Macrophage Inflammatory Protein-2) (serum, Day 41, LDD 7.174, listed as Human LgG1 Control): 33.6 pg/mL and 50.3 pg/mL | IL-6 (Interleukin-6) (serum, Day 41, LDD 13.852, listed as Human LgG1 Control): 74.2 pg/mL and 67.5 pg/mL and 93.7 pg/mL | MCP-1 (Monocyte Chemoattractant Protein-1) (serum, Day 41, LDD 16.924, listed as Human LgG1 Control): 90.2 pg/mL and 129 pg/mL and 105 pg/mL | VCAM-1 (Vescular Cell Adhesion Molecule-1) (serum, Day 41, LDD 19, listed as Human LgG1 Control): 2130 ng/mL and 1890 ng/mL and 1900 ng/mL

Source: US9011853B2, “B7-H4 fusion proteins and methods of use thereof” (Amplimmune, Inc., priority 2009, dated 2015)
